Assay results: patent publication US20050192339A1, “Compounds” (priority 2003, published 2005)
Where a name gives a salt, the structure may show the parent alone.

Experiments:
[1] = target: T1, human MCH1R receptor (Homo sapiens, UniProt Q99705); assay: MCH1R receptor binding by SPA ([125I]-MCH displacement, CHO-K1 hMCH1R membranes); settings: 0.2 nM [125I]-MCH, membranes of CHO-K1 cells expressing hMCH1 receptor, room temperature; Ki calculated from IC50 (Cheng-Prusoff)
T1 construct: host or cells: CHO-K1
T1 sequence (Q99705 whole entry): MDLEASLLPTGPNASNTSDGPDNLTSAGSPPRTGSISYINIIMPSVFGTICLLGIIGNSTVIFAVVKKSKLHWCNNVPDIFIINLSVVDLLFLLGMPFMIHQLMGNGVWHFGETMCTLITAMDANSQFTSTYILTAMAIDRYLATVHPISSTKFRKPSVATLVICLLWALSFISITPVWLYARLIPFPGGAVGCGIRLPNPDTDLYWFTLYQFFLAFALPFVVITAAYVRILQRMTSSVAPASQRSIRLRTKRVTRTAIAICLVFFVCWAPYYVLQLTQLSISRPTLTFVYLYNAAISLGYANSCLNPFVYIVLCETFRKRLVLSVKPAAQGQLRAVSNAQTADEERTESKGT
Description: The compounds according to the invention were evaluated for their binding to the human MCH1R receptor by the following method:
Compounds: MCH peptide was purchased from Phoenix pharmaceuticals. (Phe^13, [^125I]Tyr^19 Melanine-Concentrating Hormone (human, mouse, rat) ([^125I]-MCH) was obtained from NEN life Science Products. Inc. Boston, Mass. Wheat germ agglutinine SPA beads (RPNQ 0001) were obtained from Amersham-Pharmacia Biotech. All other reagents used are of highest purity from different resources available. Protein Kits, Micro BCA™ Protein Assay Reagent Kit (Cat No. 23235) were purchased from Piece, Rockford, Ill., USA.
CHO-K1 cells expressing hMCH1 receptor were purchased from Euroscreen. CHO-K1 hMCHRI (Euroscreen, Brussels, Belgium, # ES-370-C) were cultivated in Nutrient mixture Ham's F-12 with Glutamax I (Gibco-BRL #31765-027) supplemented with 10% heat-inactivated foetal calf serum (FCS, Gibco-BRL #10108-165) and 400 μg/ml geniticin (Gibco-BRL #1140-0359). The cells were sub-cultivated twice weekly with split ratio=1:20-1:30. For membrane preparation the cells were cultured in […] and the cells were harvested when 90% confluent.
When the cells reached more than 90% confluence, dishes (500 cm^2) were rinsed twice with 20 ml PBS (Ca^2+ and Mg^2+ free). Buffer A, which contains Tris.HCl (15), MgCl2.6H2O (2), EDTA (0.3), EGTA (1) in mM with pH 7.5, 25 ml was added and cells were suspended using a window scraper. The cells were collected in 50 ml Falcon tube pre-cooled on ice and then centrifuged for 3 minutes at 1500 g at 4° C. […]
The radio labeled [^125I]-MCH was diluted with cold MCH in ratio 1:3. […] The results were calculated using Excel program and the curves were drawn using a program GraphPad Prism.
For screening of the substances the amount of the beads used was 0.25 mg/well and the amount of the membrane protein was 4 μg/well 0.2 nM of labeled MCH was used. […] The samples were counted using Microbeta counter (Wallac Trilux 1450 Micro beta counter, Wallac, Finland) for 2 minutes and the results were calculated by using the computer program Activity Base. […]

[2] = target: T1, human MCH1R receptor; settings: from Hervieu et al., Eur J Neurosci 2000; read-out: Kd of MCH binding reported in literature; cited from earlier work

| Compound | Ki [1] [nM] | Kd [2] [nM] |
| --- | --- | --- |
| COc1ccc([C@@]23CC[C@@H](NC(=S)NCc4ccccc4)C[C@@H]2N(CCCc2ccccc2)CC3)cc1OC (relative stereo) [Example 23, N-benzyl-N′-[(3aS*,6R*,7aS*)-3a-(3,4-dimethoxyphenyl)-1-(3-phenylpropyl)octahydro-1H-indol-6-yl]thiourea] | 43 |  |
| C=CCNC(=O)N[C@@H]1CC[C@@]2(c3ccc(OC)c(OC)c3)CCN(C)[C@H]2C1 (relative stereo) [Example 58, N-allyl-N′-[(3aS*,6R*7aS*)-3a-(3,4-dimethoxyphenyl)-1-methyloctahydro-1H-indol-6-yl]urea trifluoroacetate] | 907 |  |
| [^125I]-MCH |  | 1.2 |
| COc1ccc([C@@]23CC[C@@H](NC(=O)NCc4ccc(Br)cc4)C[C@@H]2N(C)CC3)cc1OC (relative stereo) [Example 69, N-(4-bromobenzyl)-N′-[(3aS*,6R*,7aS*)-3a-(3,4-dimethoxyphenyl)-1-methyloctahydro-1H-indol-6-yl]urea trifluoroacetate] | 227 |  |
